The source made the active and inactive calls.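 How the source made its calls: active means mean IC50 for reducing PEG3 promoter reporter signal at or below a set limit, with IC50 above the limit in both counter screens; inactive means the rest, including counter screen hits.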
Tests used:
Test in all cases: Peg3 promoter luciferase inhibitors, potency, dose response, cell-based, HeLa, CREF/GAPDH counter-screen panel (AID 624167)
PEG-3 [1] = conditions: HeLa PEG-Prom luciferase reporter, overnight, CREF/GAPDH counter-screens
PEG-3 [2] = target: PEG-3 (UniProt Q6IN02); conditions: HeLa PEG-Prom luciferase reporter, overnight, CREF/GAPDH counter-screens, mean of runs
Rat fibroblasts (CREF) = conditions: CREF/GAPDH counter-screens
[3] = run 1, dose range 1, individual replicate IC50 per panel
[4] = run 2, dose range 1, individual replicate IC50 per panel

Sequence of PEG-3 (UniProt Q6IN02) (Q6IN02 whole entry, looked up): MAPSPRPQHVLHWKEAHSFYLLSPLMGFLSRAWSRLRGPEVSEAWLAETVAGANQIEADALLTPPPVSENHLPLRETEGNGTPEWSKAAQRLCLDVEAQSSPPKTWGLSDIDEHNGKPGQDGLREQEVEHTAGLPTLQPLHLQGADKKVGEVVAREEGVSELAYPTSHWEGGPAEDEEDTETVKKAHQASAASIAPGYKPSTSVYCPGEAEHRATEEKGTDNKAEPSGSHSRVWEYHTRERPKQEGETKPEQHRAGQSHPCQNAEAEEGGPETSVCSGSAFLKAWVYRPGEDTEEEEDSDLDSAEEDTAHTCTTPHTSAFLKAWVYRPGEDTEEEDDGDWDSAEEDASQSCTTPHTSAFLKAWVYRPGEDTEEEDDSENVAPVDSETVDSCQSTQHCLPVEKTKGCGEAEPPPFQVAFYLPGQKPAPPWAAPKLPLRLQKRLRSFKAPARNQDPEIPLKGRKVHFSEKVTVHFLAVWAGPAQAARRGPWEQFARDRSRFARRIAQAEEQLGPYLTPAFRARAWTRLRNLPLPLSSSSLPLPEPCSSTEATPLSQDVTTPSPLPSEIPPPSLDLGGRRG

Compound | IC50 (PEG-3 [1]; [3]) [nM] | IC50 (PEG-3 [1]; [4]) [nM] | IC50 (PEG-3 [2]) | IC50 (Rat fibroblasts (CREF); mean of runs) [nM] | IC50 (Rat fibroblasts (CREF); [3]) [nM] | IC50 (Rat fibroblasts (CREF); [4]) [nM]
Cc1ccc(C(=O)Nc2cc3ccccc3oc2=O)cc1 | 327 | 1000 | 665 nM | 1660 | 409 | 2900
CCCN1C=CC(=C2C(=O)c3ccccc3C2=O)C=C1 | 783 | 292 | 538 nM | 538 | 469 | 606
O=C(Nc1nc2ccccc2[nH]1)c1ccccc1F | 1130 | 1400 | 1260 nM | 1470 | 1260 | 1680
COc1ccc(/C=N/Nc2nncc3ccccc23)cc1 | 4620 | 8430 | 6520 nM | 835 | 957 | 712
O=C(OCC(F)(F)F)c1cccc(COc2ccc3ccccc3c2)c1 | 1140 | 1400 | 1270 nM | 16100 | 14900 | 17300
CC1CCCN(c2ncnc3c2cnn3-c2ccc(Cl)cc2)C1 (stereo unspecified) | 6000 | 8400 | 7200 nM | 1980 | 1780 | 2170
C=C1CC(COc2ccc3c(C)c(Cl)c(=O)oc3c2)(c2ccccc2)OC1=O (stereo unspecified) | 6470 | 3620 | 5040 nM | 9110 | 9320 | 8900
O=C(Nc1ccc(N2CCOCC2)cc1)c1cnsn1 | 2800 | 1470 | 2130 nM | 2590 | 2510 | 2680
COc1cc(SC)ccc1C(=O)Nc1nc(C)cs1 | 1690 | 2520 | 2110 nM | 516 | 542 | 490
COc1ccccc1C(=O)Nc1nc2ccccc2s1 | 515 | 633 | 574 nM | 489 | 348 | 631
Cc1cccc(/C=N/Nc2ccc3ccccc3n2)c1 | 3780 | 4580 | 4180 nM | 1410 | 2440 | 370
O=C(CN1C(=O)c2ccccc2S1(=O)=O)c1ccc2c(c1)OCCO2 | 730 | 415 | 573 nM | 1610 | 1280 | 1940
O=C(Nc1nc2cc3c(cc2s1)OCCO3)c1ccco1 | 1750 | 2220 | 1980 nM | 1480 | 766 | 2200
O=C(NCCc1ccccc1)c1ccc2c(c1)OCO2 | 3970 | 5890 | 4930 nM | 6290 | 6890 | 5680
O=C(N/N=C/c1cccs1)c1n[nH]c2c1CCCC2 | 3450 | 6930 | 5190 nM | 6000 | 5100 | 6910
O=C(CN1C(=O)c2ccccc2S1(=O)=O)c1ccc2c(c1)OCCCO2 | 770 | 411 | 590 nM | 1280 | 1070 | 1480
CC(C)(C)C(=O)Nc1ccc(NC(=O)c2ccco2)nc1 | 4900 | 246 | 2580 nM | 435 | 224 | 646
Cc1c(C)c2ccc(OCC(=O)Nc3ccccn3)c(C)c2oc1=O | 1640 | 767 | 1200 nM | 1650 | 1440 | 1860
O=C(NCCc1ccccc1)c1ccc2c(c1)OCCO2 | 646 | 625 | 636 nM | 1730 | 1360 | 2100
Cc1ccc(C(=O)Nc2nc3ccccc3[nH]2)cc1 | 2020 | 4710 | 3370 nM | 521 | 523 | 519
CCOC(=O)Cc1csc(NC(=S)NC(=O)c2ccc(Cl)cc2)n1 | 7550 | 3680 | 5620 nM | 4970 | 4160 | 5770
O=c1oc2ccccc2cc1-c1cn2ccccc2n1 | 2310 | 3170 | 2740 nM | 4470 | 2840 | 6100
O=C(O)c1cccc(COc2ccc3c(c2)CCC3)c1 | 823 | 1880 | 1350 nM | 10300 | 10700 | 9920
O=C(NC(=O)c1ccccc1)Nc1ccccn1 | 1250 | 1880 | 1570 nM | 751 | 676 | 825
COC1=C(Br)C(=O)c2ncccc2C1=O | 8010 | 5300 | 6650 nM | 14200 | 8910 | 19400

Compound | IC50 (PEG-3 [1]; [3]) [nM] | IC50 (PEG-3 [1]; [4]) [nM] | IC50 (PEG-3 [2]) | IC50 (Rat fibroblasts (CREF); mean of runs) [nM] | IC50 (Rat fibroblasts (CREF); [3]) [nM] | IC50 (Rat fibroblasts (CREF); [4]) [nM]
CN(C)c1ccc(/C=C(\C#N)c2ccccn2)cc1 | 4250 | 4380 | 4320 nM | 639 | 531 | 747
CC(C)Cc1ccc(C(C)C(N)=NCCc2ccccc2)cc1 (stereo unspecified) | 12200 | 7190 | 9700 nM | 13300 | 15000 | 11600
Cc1cc(C2=NNC(=NC3CC3)SC2)c(C)n1-c1ccccc1F | < 200 | < 200 | < 200 nM | 3300 | 2720 | 3890
CN(C)c1ccc(Nc2nc(N)c3ccccc3n2)cc1 | 2510 | 4820 | 3660 nM | 995 | 869 | 1120
CN(C)c1ccc(/C=C/c2ccc3c4ccccc4ccc3[n+]2-c2ccccc2)cc1 | 10500 | 9520 | 10000 nM | 17800 | 16900 | 18700
COc1cc(/C=N/O)ccc1OCc1ccc(C(=O)O)cc1 | 1710 | 1510 | 1610 nM | 9430 | 10100 | 8800
CCOc1ccc(NC(=O)Nc2cccc(C(=O)O)c2)cc1 | 2900 | 3580 | 3240 nM | 4090 | 3070 | 5100
Cc1nn(-c2nc3ccccc3[nH]2)c(=O)c2ccccc12 | 510 | 471 | 491 nM | 331 | 351 | 311
Cc1ccccc1-c1nc(-c2ccccn2)no1 | 2980 | 4810 | 3900 nM | 1330 | 1080 | 1570
Cc1nc(SCC(=O)Nc2nc3ccccc3s2)c(C#N)c(C)c1C | 8050 | < 200 | 4130 nM | 7900 | 232 | 15600
Cc1cc(C(=O)CN2C(=O)c3ccccc3S2(=O)=O)c(C)n1CC1CCCO1 (stereo unspecified) | 760 | 375 | 568 nM | 3910 | 1950 | 5860
Cc1c([N+](=O)[O-])cc(N2C(=O)C=CC2=O)cc1[N+](=O)[O-] | 9190 | 7250 | 8220 nM | 17200 | 16800 | 17600
O=C(Cn1ncc(Cl)c(Cl)c1=O)N1CCc2ccccc21 | 10100 | 7380 | 8730 nM | 14300 | 18500 | 10000
Brc1ccc(N/N=C(/N=Nc2nn[nH]n2)c2ccccc2)cc1 | 760 | 1240 | 1000 nM | 10200 | 10000 | 10400
C(=NNc1ccc2ccccc2n1)c1ccccn1 | 1210 | 2110 | 1660 nM | 1440 | 1330 | 1550
CCc1ccc(C(=O)Nc2nc3ccccc3[nH]2)cc1 | 2240 | 2950 | 2590 nM | 476 | 298 | 654
CCOc1ccc(NC(=O)c2ccccn2)cc1 | 2890 | 4040 | 3460 nM | 1280 | 921 | 1650
CN(c1ccc2nc3ccccc3c(=O)n2n1)C1CCCCC1 | 3000 | 4940 | 3970 nM | 772 | 789 | 755
Cc1ccc2nc(C)cc(Nc3ccc([N+](=O)[O-])cc3)c2c1 | 10600 | 5380 | 8000 nM | 8480 | 8420 | 8540
CN(C)c1ccc(NC(=S)c2ccccn2)cc1 | 2190 | 2970 | 2580 nM | 1200 | 1250 | 1150
Cc1cc(C(=O)COC(=O)c2ccccc2O)c(C)n1CC1CCCO1 (stereo unspecified) | 1240 | > 100000 | inactive | 3390 | 3340 | 3440
Fc1ccc(-c2nnc(NC3=NCCCCC3)o2)cc1 | 4110 | 4000 | 4060 nM | 3580 | 3940 | 3230
Cc1ccc2nc(-c3ccccc3)cn2c1 | 1020 | 1010 | 1010 nM | 783 | 619 | 948
Cc1cccc(/C=C2/Sc3ccc(C(=O)NCCN4CCCC4)cc3NC2=O)c1 | 20800 | 9950 | 15400 nM | – | – | –

From PubChem BioAssay AID624167 (Sanford-Burnham Center for Chemical Genomics, 2012)
